Data as given in patent US20170168067A1, “CHROMATIN-ACTIVITY-BASED CHEMOPROTEOMIC (CHAC) METHODS AND SYSTEMS FOR DISEASE MARKER DISCOVERY AND DEVELOPMENT” (The University of North Carolina at Chapel Hill, priority 2014, published 2017).
Peptide text beside a SMILES is read from it. * marks the point of attachment. Cbz = O=C(OCc1ccccc1)*

Assays:
[1] = test system: c-Myc; assay: c-Myc accumulation after proteasome inhibition, immunoblot; format: cell-based, mouse; conditions: LPS-primed, 10 mM MG-132
Procedure: Raw264.7 or TLR4/MD2/CD14 293 cell lines were primed with 100 ng/ml^−1 LPS for 24 h and then treated with 1 mg/ml^−1 cycloheximide (Sigma-Aldrich; #C4859) for indicated time. Cells were harvested and subjected to immunoblot analysis by using anti-c-Myc antibody. Exposed films of immunoblot were scanned and quantified by ImageJ densitometry software. The intensity of each band was plotted in scatter plot and c-Myc half-life was determined on computed curve. Raw264.7 cells were primed with 100 ng/ml^−1 LPS for 24 h and then treated with 10 mM MG-132 for time indicated. C-Myc accumulation was reflected in immunoblot against c-Myc by short- and long-exposure. b-Actin and g-Tubulin were represented as loading controls.

[2] = test system: G9a; assay: ChIP abundance of G9a within T-class promoters; format: cell-based, mouse; conditions: pre-treated TL cells
Procedure: (§1) ChIP experiments for studying histone modifiers and TFs were carried out in dual crosslinking way (Porro et al., 2007) with minor modifications. Cells were fixed using 2 mM DSG (disuccinimidyl glutarate, ProteomChem #c1104) for 45 min. Formaldehyde (1% v/v) was then added and incubated for 15 min. Crosslinking reactions were quenched by adding glycine to 0.1 M, followed by PBS washing. Cells were scraped and nuclei were pelleted by 0.5% NP-40 lysis buffer (50 mM pH 8.0 Tris-HCl, 85 mM KCl, 0.5% NP-40). The nuclear fraction was extracted with RIPA buffer (50 mM pH 8.0 Tris-HCl, 150 mM NaCl, 1 mM EDTA, 1% Triton-X-100, 0.1% SDS, 0.1% sodium deoxycholate) and sonicated to 200 to 1,000 bp DNA fragments, then incubated overnight with the antibody. The antibody complexes were linked to protein A/salmon sperm DNA beads (Cell Signaling, cat #9007) and washed thoroughly. The complexes were then eluted from the beads by 1% SDS, and incubated with NaCl to reverse the crosslinked products. Later, proteins were digested by protease-K and the released DNA was purified by QIAquick PCR purification Kit (Qiagen, cat #28104), and processed to quantitative PCR assay. ChIP experiments for studying histone post-PTMs were started from a one-step fixation of 1% (v/v) formaldehyde for 10 min, followed by the same steps as dual crosslinking ChIP described above.

[3] = test system: BMDM secretome; assay: Label-free quantitative analysis of macrophage secretome; format: cell-based, mouse; conditions: BMDMs under TL pre-treated with 250 nM for 16 h
Procedure: Referring now to FIG. 1, cells were then either left unstimulated (N) or subjected to a single LPS challenge at 500 ng/ml^−1 for indicated hours (NL) or first primed with 100 ng/ml^−1 LPS to induce the ET for 24 h, followed by the second LPS challenge at 500 ng/ml^−1 for indicated hours (TL). Before the LPS challenge, cells were washed once and cultured in serum-free DMEM without phenolred, containing 1 mM sodium pyruvate and 10 mM L-glutamine. The secreted proteins were harvested and prepared (Meissner et al., 2013).
LFQ secretome analyses were performed via reversed phase LC-MS/MS using a Proxeon 1000 nano LC system coupled to an Q Exactive mass spectrometer (Thermo Scientific). […]
Label-free quantitation was based on the peak area (Cox et al., 2008; Gunawardena et al., 2013; Gunawardena et al., 2011; Porro et al., 2007). The measured area under the curve of m/z and retention time aligned extracted ion chromatogram (XIC) of a peptide was performed via the label-free quantitation module found in MaxQuant™ (vera 1.3.0.5) (Cox et al., 2008). All replicates (biological and technical replicates) of each experimental conditions: N, NL-16 h, TL-16 h, were included in the LFQ experimental design with protein-level quantitation and normalization performed using unique and razor peptide features corresponding to identifications filtered with a peptide FDR of 0.01 and protein FDR of 0.05. […]

[4] = test system: HDAC1; assay: ChIP-PCR binding of HDAC1 to T-gene (IL6) promoter; format: cell-based, mouse; conditions: treated BMDMs during ET
Procedure: as §1

[5] = test system: MTA1; assay: ChIP-PCR binding of MTA1 to T-class genes; format: cell-based, mouse; conditions: treated BMDMs
Procedure: as §1

[6] = test system: H3K9me2; assay: ChIP analysis with anti-H3K9me2 antibody in BMDMs; format: cell-based, mouse; conditions: BMDMs treated prior to LPS stimulation; inhibitor pre-treated TL cells compared with NL
Procedure: as §1

[7] = test system: H3K36me2; assay: immunoblot analysis of dimethylated H3K36; format: cell-based, mouse; conditions: treated vs non-treated BMDMs, TL
Procedure: (§2) Core histone proteins were prepared by Histone Purification Mini Kit (Active Motif; cat#40026). Adhered cells were washed with prewarmed serum-free media twice and were then harvested. The pellet was lysed with 1.5 ml extraction buffer per 2×10^7 cells and homogenized by repetitive pipetting. The cell lysate was processed under agitation for 2 h at 4° C. before the crude histone was clarified, neutralized and loaded onto the column. Histone proteins were purified by a C8 column and were precipitated by 4% perchloric acid according to the manufacturer's instructions and were resolved in HPLC water. All steps were processed on ice or in cold room, for the maximum preservation of histone modifications.

[8] = test system: Raw264.7 cells; assay: Clonogenic survival assay; format: cell-based, mouse; set-up: dose or concentration left out as unconfirmed
Procedure: Raw264.7 cells were counted and plated in six-well cell culture plates with 50, 100 and 200 viable cells in duplicated wells. Cells were primed with 100 ng/ml^−1 LPS for […] to reach the condition of ET and replenished with fresh media. […] After 9-day cell growth, cell colonies were washed with PBS, fixed with a mixture of methanol-acetic acid (3:1 in volume ratio) for 10 min, stained with 10% Giemsa (Ricca Chemical Company, Arlington, Tex., United States of America) for 30 min, gently washed with water and air dried. The colonies containing more than 20 cells were counted and the percentage of the survived cells under each condition was determined compared with the number of colonies on non-LPS or UNC0638-treated plates.

[9] = target: T1, G9a (Homo sapiens, UniProt Q96KQ7); conditions: Vedadi et al., 2011; cited from earlier work
T1 sequence (Q96KQ7 1-1210): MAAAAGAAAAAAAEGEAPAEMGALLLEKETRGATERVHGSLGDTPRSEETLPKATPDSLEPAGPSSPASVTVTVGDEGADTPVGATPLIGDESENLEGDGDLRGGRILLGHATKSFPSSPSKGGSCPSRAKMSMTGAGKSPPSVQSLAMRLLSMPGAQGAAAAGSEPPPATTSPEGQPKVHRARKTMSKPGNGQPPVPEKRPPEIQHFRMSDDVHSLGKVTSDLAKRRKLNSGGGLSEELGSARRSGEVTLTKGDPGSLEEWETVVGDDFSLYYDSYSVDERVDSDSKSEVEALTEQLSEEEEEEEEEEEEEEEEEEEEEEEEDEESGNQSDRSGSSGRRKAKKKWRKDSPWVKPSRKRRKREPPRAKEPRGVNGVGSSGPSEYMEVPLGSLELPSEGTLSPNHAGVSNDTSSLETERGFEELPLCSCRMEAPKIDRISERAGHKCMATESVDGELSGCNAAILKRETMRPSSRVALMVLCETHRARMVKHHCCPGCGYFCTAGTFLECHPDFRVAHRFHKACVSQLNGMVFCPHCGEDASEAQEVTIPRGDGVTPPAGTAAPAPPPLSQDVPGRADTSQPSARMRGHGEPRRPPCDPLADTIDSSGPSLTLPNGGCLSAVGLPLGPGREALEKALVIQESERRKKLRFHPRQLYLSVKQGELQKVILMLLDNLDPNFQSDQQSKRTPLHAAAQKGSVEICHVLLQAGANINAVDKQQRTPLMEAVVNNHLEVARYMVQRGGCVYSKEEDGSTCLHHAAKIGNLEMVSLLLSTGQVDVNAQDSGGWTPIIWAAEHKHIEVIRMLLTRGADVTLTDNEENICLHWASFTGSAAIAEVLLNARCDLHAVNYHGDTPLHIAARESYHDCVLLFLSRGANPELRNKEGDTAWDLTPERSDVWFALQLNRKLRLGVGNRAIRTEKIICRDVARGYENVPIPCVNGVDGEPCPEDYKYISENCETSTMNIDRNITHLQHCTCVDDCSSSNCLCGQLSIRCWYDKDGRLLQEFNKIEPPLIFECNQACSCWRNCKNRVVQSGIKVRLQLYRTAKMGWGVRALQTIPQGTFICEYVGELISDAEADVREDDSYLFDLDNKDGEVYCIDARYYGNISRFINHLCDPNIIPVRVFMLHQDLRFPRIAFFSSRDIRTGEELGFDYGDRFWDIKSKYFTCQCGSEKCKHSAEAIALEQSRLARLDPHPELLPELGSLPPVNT

[10] = test system: H3K27; assay: immunoblot analysis of methylated H3K27; format: cell-based, mouse; conditions: treated cells
Procedure: as §2

[11] = test system: c-Myc; assay: ChIP-qPCR binding of c-Myc to gene loci; format: cell-based, mouse
Procedure: as §1

CC(C)C[C@@H](C=O)NC(=O)[C@H](CC(C)C)NC(=O)[C@H](CC(C)C)NC(=O)OCc1ccccc1 [MG-132] (Cbz-Leu-Leu-Leu-aldehyde)
c-Myc level with post-treatment time ([1]; G9a-KD Raw264.7 cells): progressive accumulation
c-Myc level with longer post-treatment time ([1]; wild-type Raw264.7 cells (presence of G9a)): reduced

O=C(CCCCCCC(=O)Nc1ccccc1)NO [SAHA]
abundance of G9a within the T-class promoters [2]: reduced

COc1cc2c(NC3CCN(C(C)C)CC3)nc(C3CCCCC3)nc2cc1OCCCN1CCCC1 [UNC0638, 2-Cyclohexyl-N-(1-isopropylpiperidin-4-yl)-6-methoxy-7-(3-(pyrrolidin-1-yl)propoxy) quinazolin-4-amine]
share of 992 identified proteins showing repressed releases whose secretion levels increased [3]: 45%
IL6-specific binding of HDAC1 [4]: diminished
TL-specific binding of MTA1 to T-class genes [5]: diminished
change in H3K9me2 (ChIP) [6]: greater decreases
level of H3K36me2 [7]: decreased
percentage of survived cells ([8]; cells under TL, 9-day growth): significantly reduced
percentage of survived cells ([8]; non-treated (non-LPS) wild-type cells): little effect
change in abundance of G9a [9]: little change
methylated level of H3K27 [10]: reduced
c-Myc binding to the NT-genes [11]: not affected
c-Myc binding to the loci of IL6 ([11]; treated BMDMs under TL): diminished
c-Myc binding to IL6, IP-10 and p21 ([11]; under TL): reduced
